Test results: patent US20250101470A1, “METHOD FOR IMPROVING THE YIELD OF ERINACINE A BY LIQUID FERMENTATION OF HERICIUM ERINACEUS” (Zhejiang University of Technology, priority 2023, published 2025)
Where “and” joins values, the source holds several entries; their conditions need not be identical. Identical values can stand only once.

Tested on: Hericium erinaceus strain ACCC50268
Assay: Liquid fermentation of Hericium erinaceus with an inducer added; mycelium weighed, Erinacine A in methanol extract measured by HPLC
Assay type: cell-based
Details: for effect on Erinacine A yield (in words): 5 mg/L added on 5th day; for increase of Erinacine A content in the mycelium: 5 mg/L inducer versus no inducer (0.19±0.05 mg/g dry mycelium); for increase of Erinacine A yield: 5 mg/L inducer versus no inducer (4.48±0.96 mg/L)
Protocol: The strain number of a Hericium erinaceus strain is ACCC50268; source: China Agricultural Culture Collection and Management Center.
(S.1) A strain of Hericium erinaceus was subcultured for 3 generations to achieve strain activation. The subculture temperature is 25-28° C., and the optimal culture temperature in this example is 28° C., and the time is 14 days, so that the entire inclined plane can be grown to obtain a slope strain. The components of PDA inclined medium are: potato extract, 15-25 g of glucose, 10-15 g of agar powder, and the volume is set to 1 L with water. In this example, the optimal PDA inclined medium components are as follows: potato extract, 20 g of glucose, 15 g of agar powder, and the volume is determined to 1 L with water;
(S.2) The slope strains obtained in step (S.1) were inoculated into the primary liquid seed medium for culture. One vial of bevel strains was inoculated into two vials of primary liquid seed medium. The components of liquid seed medium are: glucose 25-35 g, soybean meal powder 15-30 g, potassium dihydrogen phosphate 0.5-2 g, magnesium sulfate 0-1 g, and the balance is water. The culture conditions of liquid seed medium are: 1-10 days at 25-28° C. and 130-160 rpm in the dark. In this example, the optimal liquid seed medium components are as follows: glucose 30 g, soybean meal powder 20 g, potassium dihydrogen phosphate 1 g, magnesium sulfate 0.5 g, and the balance is water. The medium was fixed to 1 L with purified water, and the prepared liquid seed medium was loaded into a 500 mL Erlenmeyer flask with a liquid volume of 200 mL, and cultured at 27° C. and 140 rpm for 7 days in the dark, and the liquid seeds of Hericium erinaceus were obtained.
(S.3) the liquid seeds obtained in step (S.2) are inoculated into the liquid fermentation medium for liquid fermentation culture, the ratio of the liquid seed inoculation volume of Hericium erinaceus to the volume of the liquid fermentation medium is 8-12.5% (i.e., the inoculation amount of Hericium erinaceus liquid seeds is 8-12.5%), and the optimal inoculation amount of Hericium erinaceus liquid seeds in this example is 10%. The components of liquid fermentation medium are: glucose 25-50 g, yeast powder 10-30 g, potassium dihydrogen phosphate 0.5-2 g, magnesium sulfate 0-1 g, and the balance is water. The culture conditions of liquid fermentation medium are: 1-10 days at 25-28° C. and 130-160 rpm in the dark. In this example, the optimal liquid fermentation medium components are as follows: 30 g of glucose, 30 g of yeast powder, 1 g of potassium dihydrogen phosphate, 0.5 g of magnesium sulfate, and the balance is water. The medium was fixed to 1 L with distilled water, and the prepared liquid seed medium was packed into a 500 mL Erlenmeyer flask with a liquid volume of 200 mL, and incubated at 27° C. and 140 rpm for 7 days in the dark. […]
seeds of Hericium erinaceus obtained in step (S.2) into liquid fermentation medium for liquid fermentation, […] fermentation medium to a concentration of 5 mg/L. […] After the end of fermentation, the medium was filtered through 80 mesh gauze, washed with water three times, and then dried overnight at 60° C. with hot air to obtain Hericium erinaceus mycelium;
(S.4) The Hericium erinaceus mycelium obtained in step (S.3) was crushed, and 1 g of Hericium erinaceus mycelium dry powder was added to 20 mL of 80% methanol, heated and ultrasonicated. The reaction conditions for ultrasonic extraction of Erinacine A are as follows: ultrasonic power is 200-350 W, heating reaction temperature is 50-70° C., and ultrasonic reaction time is 40-90 min. In this example, the reaction conditions for the optimal ultrasonic extraction of Erinacine A are as follows: ultrasonic extraction at 60° C. and ultrasonic power of 300 W for 60 min. The supernatant was centrifuged to obtain an alcohol extract containing Erinacine A. The alcohol extract was filtered through a 0.22 μm filter membrane and then analyzed in liquid phase. […]

[1] = inducer 5 mg/L in liquid fermentation medium, added on 5th day, 6 days induction fermentation
[2] = inducer 5 mg/L in liquid fermentation medium, added on 5th day, 6 days induction fermentation, listed as Example 2
[3] = 1 mg/L, added on 5th day, 6 days induction fermentation
[4] = 5 mg/L, added on 5th day, 1 day induction fermentation
[5] = 5 mg/L, added on 5th day, 2 days induction fermentation
[6] = 5 mg/L, added on 5th day, 4 days induction fermentation
[7] = 20 mg/L, added on 5th day, 6 days induction fermentation
[8] = 1 mL of the substance (purity greater than 95%) added on 5th day, 6 days induction fermentation
[9] = 5 mg/L, added on 4th day, 6 days induction fermentation
[10] = 5 mg/L, added on 5th day, 3 days induction fermentation
[11] = 5 mg/L, added on 5th day, 5 days induction fermentation
[12] = 5 mg/L, added on 5th day, 8 days induction fermentation
[13] = 5 mg/L, added on 6th day, 6 days induction fermentation
[14] = 5 mg/L, added on 7th day, 6 days induction fermentation
[15] = 5 mg/L, added on 8th day, 6 days induction fermentation
[16] = 5 mg/L, added on third day, 6 days induction fermentation
[17] = 10 mg/L, added on 5th day, 6 days induction fermentation
[18] = 50 mg/L, added on 5th day, 6 days induction fermentation
[19] = inducer 5 mg/L in liquid fermentation medium, added on 5th day, 6 days induction fermentation, listed as Example 1

C=C(C)[C@H]1Cc2c(ccc3c2O[C@@H]2COc4cc(OC)c(OC)cc4[C@@H]2C3=O)O1 [rotenone]
effect on Erinacine A yield (in words) (6 days induction fermentation): positive effect on the increase of Erinacine A yield | increase of Erinacine A content in the mycelium: about 2.52 times | increase of Erinacine A yield: about 2.06 times | Erinacine A content [1]: 0.67 mg/g dried mycelium and 0.67±0.04 mg/g dried mycelium | Erinacine A yield [1]: 13.72 mg/L and 13.72 ± 0.24 mg/L | Mycelium yield [1]: 8.50 ± 1.69 g/L | Erinacine A content [2]: 0.67 ± 0.04 mg/g dried mycelium | Erinacine A yield [2]: 13.72 ± 0.24 mg/L

methyl viologen
Erinacine A content [3]: 0.63 ± 0.09 mg/g dried mycelium | Erinacine A yield [3]: 13.93 ± 4.56 mg/L | Mycelium yield [3]: 9.49 ± 2.94 g/L | Erinacine A content [4]: 0.07 ± 0.01 mg/g dried mycelium | Mycelium yield [4]: 20.16 ± 0.85 g/L | Erinacine A content [5]: 0.68 ± 0.27 mg/g dried mycelium | Erinacine A yield [5]: 12.53 ± 3.82 mg/L | Mycelium yield [5]: 17.94 ± 1.68 g/L | Erinacine A content [6]: 5.49 ± 1.60 mg/g dried mycelium | Erinacine A yield [6]: 103.99 ± 18.67 mg/L | Erinacine A content [7]: 1.50 ± 0.38 mg/g dried mycelium | Erinacine A yield [7]: 29.47 ± 7.44 mg/L | Mycelium yield [7]: 19.61 ± 0.48 g/L

CCCCCCCC/C=C\CCCCCCCC(=O)O [oleic acid]
effect on synthesis of Erinacine A (in words) (1 mL added on the 5th day of liquid fermentation): did not show obvious stimulating effects | Erinacine A content [8]: 0.20 ± 0.10 mg/g dried mycelium | Erinacine A yield [8]: 4.70 ± 2.16 mg/L | Mycelium yield [8]: 23.72 ± 1.04 g/L

C[n+]1ccc(-c2cc[n+](C)cc2)cc1 [methyl viologen]
effect on Erinacine A yield (in words) (6 days induction fermentation): significantly increased the yield of Erinacine A | increase of Erinacine A content in the mycelium: about 115.47 times | increase of Erinacine A yield: about 92.60 times | Erinacine A content [9]: 1.52 ± 0.30 mg/g dried mycelium | Erinacine A yield [9]: 22.18 ± 3.84 mg/L | Mycelium yield [9]: 2.00 ± 0.84 g/L | Erinacine A content [10]: 2.29 ± 0.52 mg/g dried mycelium | Erinacine A yield [10]: 40.30 ± 7.52 mg/L | Mycelium yield [10]: 17.68 ± 0.50 g/L | Erinacine A content [11]: 16.58 ± 0.43 mg/g dried mycelium | Erinacine A yield [11]: 276.77 ± 4.72 mg/L | Mycelium yield [11]: 5.45 ± 1.39 g/L | Erinacine A content [12]: 8.97 ± 2.33 mg/g dried mycelium | Erinacine A yield [12]: 179.50 ± 62.29 mg/L | Mycelium yield [12]: 19.79 ± 0.76 g/L | Erinacine A content [13]: 2.98 ± 1.16 mg/g dried mycelium | Erinacine A yield [13]: 69.29 ± 30.01 mg/L | Mycelium yield [13]: 23.05 ± 1.08 g/L | Erinacine A content [14]: 2.68 ± 0.66 mg/g dried mycelium | Erinacine A yield [14]: 61.60 ± 10.06 mg/L | Mycelium yield [14]: 23.22 ± 1.93 g/L | Erinacine A content [15]: 0.57 ± 0.12 mg/g dried mycelium | Erinacine A yield [15]: 13.29 ± 2.55 mg/L | Mycelium yield [15]: 23.28 ± 0.57 g/L | Erinacine A content [16]: 0.05 ± 0.01 mg/g dried mycelium | Erinacine A yield [16]: 0.41 ± 0.06 mg/L | Mycelium yield [16]: 8.64 ± 1.54 g/L | Erinacine A content [17]: 20.61 ± 3.21 mg/g dried mycelium | Erinacine A yield [17]: 400.44 ± 69.30 mg/L | Mycelium yield [17]: 7.40 ± 0.36 g/L | Erinacine A content [18]: 0.21 ± 0.04 mg/g dried mycelium | Erinacine A yield [18]: 3.71 ± 1.06 mg/L | Mycelium yield [18]: 17.71 ± 1.29 g/L | Erinacine A content [1]: 21.94±2.40 mg/g dried mycelium | Erinacine A yield [1]: 414.84 ± 30.03 mg/L | Mycelium yield [1]: 18.96 ± 0.69 g/L | Erinacine A content [19]: 94.94 ± 2.40 mg/g dried mycelium | Erinacine A yield [19]: 414.84 ± 30.03 mg/L and 418.84 ± 30.03 mg/L | effect on liquid fermentation growth of Hericium erinaceus (in words) (methyl viologen solution added at different times): inhibitory effect on the liquid fermentation growth of Hericium erinaceus
